From US4696928A, “Substituted dihydroimidazo[1,2-a]quinoxalines” (G. D. Searle & Co., priority 1985, dated 1987)
In brackets after ≈: the same amount, converted by molar mass. Read-outs that look alike come from different tables or passages of the source.

Assays:
[1] = test system: Clostridium perfringens NCTC 523; assay: microbe, parasite or virus in culture; type: cell-based; conditions: NCTC523
[2] = test system: B. fragilis NCTC 9344; assay: MIC/MBC broth microdilution, strain C; type: cell-based, Bacteroides fragilis; conditions: Bacteroides fragilis, NCTC9344, 48 h; for MIC: 37° C., anaerobic; for MBC: 99.9% reduction in viable count after 48 h, read-out: MBC
[3] = test system: Fusobacterium necrophorum ATCC 11295; assay: MIC vs. panel of anaerobes; type: cell-based; conditions: ATCC11295
[4] = test system: B. fragilis NCTC 9343; assay: MIC/MBC broth microdilution, strain B; type: cell-based; conditions: Bacteroides fragilis, NCTC9343, 48 h; for MIC: 37° C., anaerobic; for MBC: 99.9% reduction in viable count after 48 h
[5] = test system: B. fragilis WS-1; assay: MIC/MBC broth microdilution, strain E; type: cell-based, Bacteroides fragilis; conditions: Bacteroides fragilis, WS1, 48 h; for MIC: 37° C., anaerobic; for MBC: 99.9% reduction in viable count after 48 h
[6] = test system: Clostridium difficile Cytotoxic 1; assay: MIC vs. panel of anaerobes; type: cell-based; conditions: Clostridioides difficile
[7] = test system: Clostridium difficile NCIB 10666; assay: MIC vs. panel of anaerobes; type: cell-based; conditions: Clostridioides difficile, NCIB10666; Clostridium difficile NCIB 10666; read-out: MIC
[8] = test system: B. fragilis NCTC 10581; assay: MIC/MBC broth microdilution, strain A; type: cell-based; conditions: Bacteroides fragilis, NCTC10581, 48 h; for MIC: 37° C., anaerobic; for MBC: 99.9% reduction in viable count after 48 h
[9] = test system: Clostridium perfringens NCTC 8237; assay: microbe, parasite or virus in culture; type: cell-based; conditions: NCTC8237
[10] = test system: Peptostreptococcus anaerobicus; assay: MIC vs. panel of anaerobes; type: cell-based
[11] = test system: Propionebacterium acnes NCTC 7337; assay: MIC vs. panel of anaerobes; type: cell-based
[12] = test system: B. Fragilis ATCC 23745; conditions: Bacteroides fragilis, ATCC23745, in Mus musculus, po, 48 h, read-out: Dose giving 1 log reduction, p.o., after infection and twice daily for 2 days; 1 log (90%) reduction of CFU/ml liver homogenate vs untreated; compound of Example
[13] = test system: Bacteroides melanogenicus NCTC 9336; assay: MIC vs. panel of anaerobes; type: cell-based; conditions: NCTC9336
[14] = test system: Campylobacter fetus ss.jejuni ATCC 29428; assay: MIC vs. panel of anaerobes; type: cell-based; conditions: ATCC29428
[15] = test system: B. fragilis MZ-R ATCC 11295; assay: MIC/MBC broth microdilution, strain D; type: cell-based; conditions: Bacteroides fragilis, ATCC11295, 48 h; for MBC: 99.9% reduction in viable count after 48 h
[16] = test system: Propionebecterium acnes NCTC 737; assay: MIC vs. panel of anaerobes; type: cell-based
[17] = Fusobacterium necrophorum ATCC 11295, read-out: MIC
[18] = Peptostreptococcus anaerobicus, read-out: MIC
[19] = Bacteroides melanogenicus NCTC 9336, read-out: MIC
[20] = strain D (MZ-R), 48 h, 37° C., anaerobic, read-out: MIC

Structure (SMILES)	MIC [1] [mg/L]	MIC ([2]; read-out: MIC) [mg/L]	MBC [2] [mg/L]	MIC [3, 17] [mg/L]	MIC ([4]; read-out: MIC) [mg/L]	MBC [4] [mg/L]	MIC ([5]; read-out: MIC) [mg/L]	MBC [5] [mg/L]	MIC [6] [mg/L]	MIC [7] [mg/L]	MIC ([8]; read-out: MIC) [mg/L]	MBC [8] [mg/L]	MIC [9] [mg/L]	MIC [10, 18] [mg/L]	MIC [11] [mg/L]	ED (1 log reduction) [12] [mg/kg]	MIC [13, 19] [mg/L]	MIC [14] [mg/L]	MBC ([15]; strain D (MZ-R)) [mg/L]	MIC [16] [mg/L]	other results
[O-][N+]1=C(c2ccccc2)C2=NCCN2c2nc(Cl)ccc21 [Example 3, 8-Chloro-1,2-dihydro-4-phenylimidazo[1,2-a]pyrido[3,2-e]-pyrazine 5-oxide]	6.2 (≈ 20.8 µM)	6.2 (≈ 20.8 µM)	6.2 (≈ 20.8 µM)	6.2 (≈ 20.8 µM)	12.5 (≈ 41.8 µM)	12.5 (≈ 41.8 µM)	6.2 (≈ 20.8 µM)	6.2 (≈ 20.8 µM)	< 0.8	< 0.8	12.5 (≈ 41.8 µM)	12.5 (≈ 41.8 µM)	25 (≈ 83.7 µM)	50 (≈ 167 µM)	100 (≈ 335 µM)	< 40	100 (≈ 335 µM)	50 (≈ 167 µM)	3.1 (≈ 10.4 µM)	> 100	MIC [15]: 3.1 mg/L (≈ 10.4 µM)
[O-][N+]1=C(c2ccccc2)C2=NCCN2c2cc(F)ccc21 [Example 1, 1,2-Dihydro-8-fluoro-4-phenylimidazo[1,2-a]quinoxaline 5-oxide]	3.1 (≈ 11 µM)	1.5 (≈ 5.33 µM)	1.5 (≈ 5.33 µM)	< 0.8	–	3.1 (≈ 11 µM)	–	3.1 (≈ 11 µM)	< 0.8	< 0.8	–	3.1 (≈ 11 µM)	3.1 (≈ 11 µM)	25 (≈ 88.9 µM)	50 (≈ 178 µM)	7.57	25 (≈ 88.9 µM)	2.5 (≈ 8.89 µM)	1.5 (≈ 5.33 µM)	50 (≈ 178 µM)	MIC ([4]; 48 h): 3.1 mg/L (≈ 11 µM); MIC ([5]; 48 h): 3.1 mg/L (≈ 11 µM); MIC ([8]; 48 h): 3.1 mg/L (≈ 11 µM); MIC [15]: 0.8 mg/L (≈ 2.84 µM)
[O-][N+]1=C(c2ccccc2)C2=NCCN2c2cc(N3CCN(Cc4ccccc4)CC3)ccc21 [Example 6, 1,2-Dihydro-4-phenyl-8-(4-phenylmethylpiperazinyl)imidazo[1,2-a]quinoxaline5-oxide]	12.5 (≈ 28.6 µM)	–	25 (≈ 57.1 µM)	–	50 (≈ 114 µM)	50 (≈ 114 µM)	25 (≈ 57.1 µM)	25 (≈ 57.1 µM)	3.1 (≈ 7.08 µM)	< 0.8	25 (≈ 57.1 µM)	25 (≈ 57.1 µM)	12.5 (≈ 28.6 µM)	100 (≈ 229 µM)	50 (≈ 114 µM)	6.27	50 (≈ 114 µM)	100 (≈ 229 µM)	25 (≈ 57.1 µM)	50 (≈ 114 µM)	MIC ([2]; 48 h): 12.5 mg/L (≈ 28.6 µM); MIC ([3]; Fusobacterium necrophorum): 12.5 mg/L (≈ 28.6 µM); MIC [15, 20]: 25 mg/L (≈ 57.1 µM)
CN1CCN(c2ccc3c(c2)N2CCN=C2C(c2ccccc2)=[N+]3[O-])CC1 [Example 4, 1,2-Dihydro-8-(4-methylpiperazinyl)-4-phenylimidazo[1,2-a]-quinoxaline 5-oxide]	6.2 (≈ 17.2 µM)	–	3.1 (≈ 8.58 µM)	6.2 (≈ 17.2 µM)	–	3.1 (≈ 8.58 µM)	6.2 (≈ 17.2 µM)	6.2 (≈ 17.2 µM)	6.2 (≈ 17.2 µM)	1.5 (≈ 4.15 µM)	–	3.1 (≈ 8.58 µM)	12.5 (≈ 34.6 µM)	–	25 (≈ 69.2 µM)	7.73	–	25 (≈ 69.2 µM)	1.5 (≈ 4.15 µM)	25 (≈ 69.2 µM)	MIC ([2]; 48 h): 3.1 mg/L (≈ 8.58 µM); MIC ([4]; 48 h): 3.1 mg/L (≈ 8.58 µM); MIC ([8]; 48 h): 3.1 mg/L (≈ 8.58 µM); MIC ([10]; Peptostreptococcus): 12.5 mg/L (≈ 34.6 µM); MIC ([13]; Bacteroides): 12.5 mg/L (≈ 34.6 µM); MIC [15, 20]: 1.5 mg/L (≈ 4.15 µM)
[O-][N+]1=C(c2ccccc2)C2=NCCN2c2cc(N3CCN(c4ccccc4)CC3)c(F)cc21 [Example 5, 1,2-Dihydro-7-fluoro-4-phenyl-8-(4-phenylpiperazinyl)imidazo[1,2-a]quinoxaline 5-oxide]	3.1 (≈ 7.02 µM)	6.2 (≈ 14 µM)	–	6.2 (≈ 14 µM)	1.5 (≈ 3.4 µM)	–	1.5 (≈ 3.4 µM)	–	< 0.8	< 0.8	–	–	6.2 (≈ 14 µM)	> 100	> 100	11.7	> 100	> 100	–	> 100	MIC ([8]; 48 h): 3.1 mg/L (≈ 7.02 µM); MIC [15]: 0.8 mg/L (≈ 1.81 µM)
CC(=O)N1CCN(c2ccc3c(c2)N2CCN=C2C(c2ccccc2)=[N+]3[O-])CC1 [Example 7, 8-(4-Acetylpiperazinyl)-1,2-dihydro-4-phenylimidazo[1,2-a]quinoxaline 5-oxide]	1.5 (≈ 3.85 µM)	6.2 (≈ 15.9 µM)	6.2 (≈ 15.9 µM)	3.1 (≈ 7.96 µM)	–	3.1 (≈ 7.96 µM)	6.2 (≈ 15.9 µM)	6.2 (≈ 15.9 µM)	< 0.8	< 0.8	6.2 (≈ 15.9 µM)	6.2 (≈ 15.9 µM)	3.1 (≈ 7.96 µM)	12.5 (≈ 32.1 µM)	12.5 (≈ 32.1 µM)	11.3	6.2 (≈ 15.9 µM)	12.5 (≈ 32.1 µM)	1.5 (≈ 3.85 µM)	25 (≈ 64.2 µM)	MIC ([4]; 48 h): 3.1 mg/L (≈ 7.96 µM); MIC [15, 20]: 1.5 mg/L (≈ 3.85 µM)
